Values quoted from earlier work, collected in patent US20220118118A1, “BENZAZEPIN-L,7-DIOL-DERIVED RADIOLABELED LIGANDS WITH HIGH IN VIVO NMDA SPECIFICITY” (ETH ZURICH, priority 2018, published 2022).

Conditions: Garrigou-Cadenne et al. 1995

## OC(CN1CCC(Cc2ccc(F)cc2)CC1)c1ccc(Cl)cc1 (stereo not shown) [eliprodil]
  brain/plasma ratio: about 20
